One compound from publication PMC4558462, “A new small molecule inhibitor of soluble guanylate cyclase” (Bioorganic & Medicinal Chemistry, 2015) can be followed below.

The target in one test is T1, membrane-bound GCs (pGC) (Rattus norvegicus, UniProt P18910).
T1 sequence (P18910 29-1057): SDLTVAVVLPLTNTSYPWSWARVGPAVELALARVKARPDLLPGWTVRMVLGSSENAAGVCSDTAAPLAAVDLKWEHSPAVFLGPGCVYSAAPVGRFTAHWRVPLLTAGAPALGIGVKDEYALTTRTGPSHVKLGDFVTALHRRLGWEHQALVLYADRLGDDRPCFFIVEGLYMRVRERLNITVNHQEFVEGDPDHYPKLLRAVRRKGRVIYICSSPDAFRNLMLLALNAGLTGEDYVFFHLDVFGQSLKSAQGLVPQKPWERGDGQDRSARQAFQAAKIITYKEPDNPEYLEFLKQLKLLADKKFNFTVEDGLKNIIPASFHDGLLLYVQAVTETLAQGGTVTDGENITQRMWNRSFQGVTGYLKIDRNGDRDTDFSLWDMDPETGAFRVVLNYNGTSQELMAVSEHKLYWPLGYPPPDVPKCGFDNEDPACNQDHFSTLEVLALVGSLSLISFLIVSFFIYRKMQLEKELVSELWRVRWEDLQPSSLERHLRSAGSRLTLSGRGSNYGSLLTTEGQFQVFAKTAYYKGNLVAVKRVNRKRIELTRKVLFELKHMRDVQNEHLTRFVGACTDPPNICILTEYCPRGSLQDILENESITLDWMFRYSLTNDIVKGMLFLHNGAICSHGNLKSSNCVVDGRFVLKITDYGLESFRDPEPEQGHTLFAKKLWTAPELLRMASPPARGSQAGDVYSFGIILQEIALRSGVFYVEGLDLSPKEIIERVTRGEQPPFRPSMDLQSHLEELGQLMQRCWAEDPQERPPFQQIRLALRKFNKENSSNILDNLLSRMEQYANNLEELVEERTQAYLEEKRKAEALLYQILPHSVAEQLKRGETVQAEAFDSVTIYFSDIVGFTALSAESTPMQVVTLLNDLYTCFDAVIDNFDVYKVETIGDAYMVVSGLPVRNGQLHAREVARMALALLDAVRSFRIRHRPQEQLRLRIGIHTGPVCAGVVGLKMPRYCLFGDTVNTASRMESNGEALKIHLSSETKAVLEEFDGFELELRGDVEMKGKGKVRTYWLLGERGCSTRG
Briefly: Particulate guanylate cyclase assay in purified rat lung membranes. Format: biochemical. The method, then:
Purified rat lung membranes (20 μg protein/200 μL) were incubated in Tris buffer with 10 mM phosphocreatine, 10 units/mL creatine phosphokinase, and 10 μM ODQ to inhibit NO-activated GC. The reaction took place with 0.3 mM MgCl, 0.5 mM MgATP, and 1 mM MgGTP, at 37 °C. The compound was added and 1 μM ANP used to activate pGC. cGMP formation was allowed to proceed for 10.5–12.5 min and was subsequently measured by radioimmunoassay.

Test [1] relates to NMDA-stimulated cGMP production in cerebellar slices. Briefly: NMDA-stimulated cGMP production in rat cerebellar slices. The following applies: 100 μM. Format: cell-based. Here is the method:
The ability of compound 10 to inhibit sGC in tissues was explored using NMDA-stimulated cGMP production in cerebellar slices, which depends on NO formation. Rat cerebellar slices were pre-incubated with compound 10 then treated with NMDA.
Brain slices methods were conducted as described in detail.[37,38] Briefly, 0.4 mm thick sagittal cerebellar slices from 10-day-old animals were cut using a McIlwain tissue chopper. Experiments were carried out in the presence of the broad spectrum phosphodiesterase inhibitor IBMX (1 mM; 10 min preincubation) and, when appropriate, antagonists were added 10 min prior to IBMX. Following treatment, brain slices were inactivated in boiling Tris–HCl buffer (50 mM, pH 7.5) containing EDTA (4 mM) and homogenised by sonication after which aliquots were removed for measurement of protein (bicinchoninic acid method) and cGMP (radioimmunoassay).

As a reminder, the Hill slope is a measure of the steepness of the concentration-response curve. For orientation: IC50 means the midpoint of a concentration-inhibition curve. The low end stands for inhibition by little substance, the high end for a need for much substance.

“Also recorded” adds a separate entry of the source.

As to `O=[N+]([O-])c1ccc2nc(Nc3ccc(O)cc3)c(Nc3ccc(O)cc3)nc2c1` [Compound 10, 4,4′-((6-Nitroquinoxaline-2,3-diyl)bis(azanediyl))diphenol], the values for the Hill slope at membrane-bound GCs (pGC) (Basal (listed under ANP group)), at membrane-bound GCs (pGC) (GC activator ANP 10 nM) and at membrane-bound GCs (pGC) (GC activator ANP 1 μM) were 2, 2 and 1, respectively. In addition, the IC50 against membrane-bound GCs (pGC) (Basal (listed under ANP group)) stood at 15 ± 2 µM; on membrane-bound GCs (pGC) (GC activator ANP 10 nM, rat lung membranes, 10 μM ODQ), 21 ± 3 µM; against membrane-bound GCs (pGC) (GC activator ANP 1 μM, rat lung membranes, 10 μM ODQ), 25 ± 13 µM. At membrane-bound GCs (pGC) (rat lung membranes, atrial natriuretic peptide stimulation, 10 μM ODQ), the “inhibition of pGC-generated cGMP (in words)” value is on record as “showed inhibition; also recorded: Inhibition of particulate GC was also observed”. The “inhibition of NMDA-induced cGMP generation” value in test [1] is reported as “almost completely; also recorded: inhibits cGMP production”.
